Patent publication US11541041B1, “Compounds that interact with the Ras superfamily for the treatment of cancers, inflammatory diseases, Rasopathies, and fibrotic disease” (Shy Therapeutics LLC, priority 2017, dated 2023)
Like-named read-outs stand apart in the source and are kept apart here.

How the values were obtained:
Rac-1 = Rac-1 (Homo sapiens (Human), UniProt P63000); assay: Rac and Rho inhibition assay; assay type: binding; settings: read-out: Rac-1 % Inh.
Experimental: (§1) Buffer-I: • 50 mM Tris, pH 7.5 • 150 mM NaCl (optional) • 1 mM MgCl2 • 1 mM DTT. • KRas G12D mutant protein was expressed as a His-tagged protein. Purified His-KRas G12D protein was diluted in buffer-I to a final concentration of 3-10 μg/ml. • 200 μl of the diluted His-KRas G12D protein was added to a nickel coated 96 well plate and incubated overnight at 4° C. • The next day, wells were washed 3× in 200 μl of Buffer-I. • Then 200 μl of Buffer-I were added to each well in the presence of 1% DMSO. • Tested compounds were added to the protein-coated wells at a concentration of 20 μM, and incubated for 3 hours at room temperature. While performing IC50 measurements a serial dilution of all tested concentrations was prepared.
(§2) Then 22 μl of Cy3-GTP or Cy5-GTP was added to each well. The labeled GTP was incubated for 45 min. at room temperature. • Following GTP incubation, wells were washed 3× in Buffer-I, and 200 μl of Buffer-I were added to each well. • Following washes, the amount of bound labeled-GTP was measured with an Eppendorf AF2200 plate reader.
(§3) By substituting KRas G12D mutant protein with either Rac-1 or Rho-A under the assay conditions described in Example 5, Rac-1 and Rho-A inhibition, respectively, were each determined.

Rho-A = Rho-A (Homo sapiens (Human), UniProt P61586); assay: Rac and Rho inhibition assay; assay type: binding; settings: read-out: Rho-A % Inh.
Experimental: as §1, §2, §3

TNFα = assay: Mouse TNF alpha quantification assay (LPS-stimulated RAW 264.7, ELISA); assay type: cell-based; settings: RAW 264.7 murine leukemia virus transformed macrophage cell lines, LPS stimulation; for inhibition at 30 µM: Mus musculus, RAW264.7, 30 μM, read-out: TNF-α % Inhibition at 30 μM
Experimental: (§4) Cell lines: Abelson murine leukemia virus transformed macrophage cell line RAW 264.7 was purchased from ATCC and grown in complete DMEM-High Glucose medium supplemented with penicillin (100 U/mL), streptomycin (100 μg/mL), and 10% heat-inactivated FBS at 37° C. in a humidified incubator with 5% CO2.
(§5) Method: Cells were plated at 40000 cells/well density in a 96-wells plate. After a 3-hour incubation, macrophages were starved with DMEM plus 0.5% FBS o/n. The next day the small molecules to be tested were added to the cells in the final concentration of 30 μM (with 0.3% DMSO) 3 hours prior to LPS stimulation (100 ng/ml). After LPS stimulation cells were incubated at 37° C. for 16h. At the end of the incubation period, culture media were collected and production of LPS-induced TNFα and IL6 cytokine was measured using ELISA detection kits.
(§6) Sandwich ELISA: The ELISA Immunoassays Quantikine Mouse TNF-alpha (catalog number MTA00B) and IL6 (catalog number M6000B) were purchased from R&D Systems Inc., Minneapolis, Minn. These 4.5 hours solid phase ELISAs were used to measure mouse TNFα or IL6 levels in macrophages culture supernatants. Assays were executed according to the manufacturer specifications.

IL6 = assay: Mouse IL6 quantification assay (LPS-stimulated RAW 264.7, ELISA); assay type: cell-based; settings: RAW 264.7 murine leukemia virus transformed macrophage cell lines, LPS stimulation; for inhibition at 30 µM: Mus musculus, RAW264.7, 30 μM, read-out: IL-6 % Inhibition at 30 μM
Experimental: as §4, §5, §6

[1] = target: KRas G12D/Q61H double mutant (Homo sapiens (Human), UniProt P01116, G12D/Q61H); assay: Ras GTP binding domain inhibition assay
Experimental: as §1, §2
By substituting KRas G12D mutant protein with KRas G12C mutant, KRas wild type, KRas Q61H mutant, KRas G12D/Q61H double mutant or KRas G12C/Q61H double mutant under the assay conditions described above, KRas G12C mutant KRas wild type, KRas Q61H mutant, KRas G12D/Q61H double mutant and KRas G12C/Q61H double mutant inhibition, respectively, were each determined.

[2] = 20 μM compound, read-out: % Inhibition at 20 μM, KRas G12D Q61H
[3] = at 20 μM, read-out: KRas G12D Q61H % Inh.

Rho-A, sequence (P61586 whole entry): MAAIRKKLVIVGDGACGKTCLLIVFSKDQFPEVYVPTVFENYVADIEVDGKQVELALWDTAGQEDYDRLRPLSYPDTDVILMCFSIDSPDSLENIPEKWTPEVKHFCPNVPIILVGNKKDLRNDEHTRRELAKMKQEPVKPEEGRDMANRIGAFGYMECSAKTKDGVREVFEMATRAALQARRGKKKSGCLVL
KRas G12D/Q61H double mutant, sequence (P01116-2 other isoform, or with tags, fused parts or gaps G12D/Q61H): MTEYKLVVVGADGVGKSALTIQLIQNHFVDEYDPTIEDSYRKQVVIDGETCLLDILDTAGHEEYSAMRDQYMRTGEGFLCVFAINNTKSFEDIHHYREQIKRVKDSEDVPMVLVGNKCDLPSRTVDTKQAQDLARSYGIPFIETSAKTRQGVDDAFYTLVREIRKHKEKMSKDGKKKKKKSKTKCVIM

Structure (SMILES) | inhibition at 20 µM (Rac-1) [%] | inhibition at 20 µM (Rho-A) [%] | other results
CCC(C)c1csc2c(OC)nc(-c3ccccn3)nc12 (stereo not shown) | 76 to 100 |  | 
OC[C@H]1O[C@@H](c2csc3c2N=C(c2ccccn2)NC3O)[C@H](O)[C@@H]1O (stereo partly shown) [drawing 3871] | 51 to 75 | 51 to 75 | 
Oc1nc(-c2ccccn2)nc2c(-c3cc(C(F)(F)F)ccc3F)csc12 |  | 1 to 25 | 
O=C(O)c1csc2nc(-c3ccccn3)nc(O)c12 |  |  | inhibition at 30 µM (TNFα): 1 to 25%; inhibition at 30 µM (IL6): 1 to 25%
Oc1nc(-c2ccccn2)nc2c(-c3ccc4c(c3)CCCO4)csc12 |  | 51 to 75 | 
COC(=O)c1csc2nc(-c3ccccn3)nc(O)c12 |  |  | inhibition at 30 µM (TNFα): 0%; inhibition at 30 µM (IL6): 51 to 75%
FC(F)(F)c1cccc(N2CCN(c3cc(Cl)nc4ncnn34)CC2)c1 |  |  | inhibition at 20 µM [1, 2]: 25 to 50%
OC[C@H]1O[C@@H](c2csc3c2N=C(c2ccccn2)NC3O)[C@H](O)[C@@H]1O (stereo partly shown) [drawing 2388] |  |  | inhibition at 30 µM (TNFα): 26 to 50%; inhibition at 30 µM (IL6): 1 to 25%
COC(=O)c1c(C)sc2nc(-c3ccccn3)nc(N)c12 | 25 to 50 | 51 to 75 | 
Cn1cc(-c2nc(C(=O)Nc3nnc(-c4ccccn4)[nH]3)cs2)cn1 |  |  | inhibition at 30 µM (TNFα): 0%
COc1cc(-c2csc3c(O)nc(-c4ccccn4)nc23)cnc1C(F)(F)F |  | 51 to 75 | 
O=C1C2C=CC=CC2OC(O)C1Cc1cc(Cl)c2cccnc2c1O (stereo not shown) |  |  | inhibition at 20 µM [1, 2]: 25 to 50%
COCCNc1nc(-c2nccn2C)nc2sc(-c3ccccc3)c(-c3ccccc3)c12 [drawing 3879] | 76 to 100 | 51 to 75 | 
COc1ccc(CCNC(=O)c2csc3nc(-c4ccccn4)nc(N4CCSCC4)c23)cn1 [drawing 3751] | 25 to 50 | 1 to 25 | inhibition at 20 µM [1, 3]: 25 to 50%
Cc1sc2c(O)nc(-c3ccccn3)nc2c1Br [drawing 2383] |  |  | TNF-α % Inhibition at 30 μM (TNFα; 30 μM): 0 (0 = 0% inhibition)
Oc1nc(-c2ccccn2)nc2c(C3CC3)csc12 |  | 51 to 75 | 
CCN(Cc1cnc(S(=O)(=O)N(C)C)o1)c1ccccc1 |  |  | inhibition at 20 µM [1, 2]: 25 to 50%
O=C(NCCc1cnc(O)nc1)c1csc2nc(-c3ccccn3)nc(N3CCSCC3)c12 [drawing 3752] | 51 to 75 | 51 to 75 | inhibition at 20 µM [1, 3]: 25 to 50%
Cc1sc2c(O)nc(-c3ccccn3)nc2c1Br [drawing 2319] |  |  | IL-6 % Inhibition at 30 μM (IL6; 30 μM): A (A = 1-25% inhibition)
O=C(c1csc2c(O)nc(-c3ccccn3)nc12)N1CCNC(c2ccc(O)cc2)C1 (stereo not shown) | 76 to 100 | 76 to 100 | 
Nc1cccc(-c2csc3c(N)nc(-c4ccccn4)nc23)n1 |  |  | inhibition at 30 µM (TNFα): 26 to 50%; inhibition at 30 µM (IL6): 76 to 100%
O=c1nc(-c2ccccn2)[nH]c2ccsc12 |  |  | inhibition at 20 µM ([1]; 20 μM, read-out: KRas G12D Q61H % Inh.): 51 to 75%
Cc1sc2c(N)nc(-c3ccccn3)nc2c1-c1ccccc1Cl |  |  | inhibition at 30 µM (TNFα): 51 to 75%; inhibition at 30 µM (IL6): 51 to 75%
Oc1nc(-c2ccccn2)nc2c(-c3ccccc3C(F)F)csc12 | 76 to 100 | 76 to 100 | 
O=C(c1ccc(S(=O)(=O)N2CCOCC2)cc1)N(Cc1ccccc1)Cc1cccs1 |  |  | inhibition at 20 µM [1, 2]: 1 to 25%
Cc1c(C(=O)N2CCN(c3ccccc3)CC2)sc2c(O)nc(-c3ccccn3)nc12 |  | 76 to 100 | 
Oc1nc(-c2ccccn2)nc2c(-c3cccnc3)c(C(F)(F)F)sc12 |  |  | inhibition at 30 µM (TNFα): 0%; inhibition at 30 µM (IL6): 51 to 75%
O=C(c1csc2c(O)nc(-c3ccccn3)nc12)N1CCNC(c2cn[nH]c2)C1 (stereo not shown) | 76 to 100 |  | 
COCc1ccc(-c2csc3c(O)nc(-c4ccccn4)nc23)cc1F | 76 to 100 |  | 
CN(C)CCOc1cccc(-c2csc3c(O)nc(-c4ccccn4)nc23)c1 | 76 to 100 | 76 to 100 | 
